Data from US6706663B2, “Herbicidal 3-heterocyclic substituted benzisothiazole and benzisoxazole compounds” (Wyeth, priority 2000, dated 2004).

Assays:
GALAP (Galium aparine) [1] = assay: Postemergence herbicidal evaluation; assay type: in vivo
In short: (§1)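 Seedlings grown for about two weeks were sprayed postemergence and then kept under standard greenhouse care. Injury was rated visually 4–5 weeks after treatment on a 0–9 scale against untreated controls, and ratings from repeat tests were averaged.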

SETVI (Setaria viridis) [2] = assay: Postemergence herbicidal evaluation; assay type: in vivo, (L.) Beau
In short: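 First, seedlings are raised in flats for about two weeks. Next, compound dispersed in 50/50 acetone/water with 0.5% TWEEN 20 is sprayed at 40 psi to deliver about 0.0040–1.000 kg/ha. Plants are then maintained in the greenhouse and rated 0-9 after four to five weeks.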

[3] = test system: GLXMAW (Soybean, Williams); assay: Postemergence herbicidal evaluation; assay type: in vivo, Glycine max, (L.) Merr. cv Williams
In short: as §1

GALAP (Galium aparine) [4] = assay: Preemergence herbicidal evaluation; assay type: in vivo; settings: preemergence, rated 4-5 weeks after treatment
In short: (§2)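 Greenhouse preemergence test: freshly planted cups were sprayed once with an aqueous acetone solution of compound. Injury was judged visually on a 0–9 scale relative to a control, four to five weeks later.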

[5] = test system: IPOHE (Ipomoea hederacea); assay: Preemergence herbicidal evaluation; assay type: in vivo, (L.) Jacq.; settings: preemergence, rated 4-5 weeks after treatment
[6] = test system: ECHCG (Echinochloa crus-galli); assay: Preemergence herbicidal evaluation; assay type: in vivo, (L.) Beau; settings: preemergence, rated 4-5 weeks after treatment
In short: as §2

SETVI (Setaria viridis) [7] = assay: Preemergence herbicidal evaluation; assay type: in vivo, (L.) Beau; settings: preemergence, rated 4-5 weeks after treatment
In short: as §2

[8] = test system: GLXMAW (Soybean, Williams); assay: Preemergence herbicidal evaluation; assay type: in vivo, Glycine max, (L.) Merr. cv Williams; settings: preemergence, rated 4-5 weeks after treatment
ZEAMX (Corn, Field) = assay: Preemergence herbicidal evaluation; assay type: in vivo, Zea mays, L.; settings: preemergence, rated 4-5 weeks after treatment
CYPIR (Cyperus iria) [9] = assay: Flooded paddy, preemergence weed control; assay type: in vivo; settings: rated 3-4 weeks after treatment, 0-9 rating scale
In short: (§3)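 Seeds or propagating organs were sown in the top 0.5 cm of silt loam soil, flooded, and the water kept 1.5 to 3 cm above the soil surface throughout. Plants were grown in the greenhouse and rated visually on a 0-9 scale against a control.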

[10] = test system: MOOVA (Monochoria vaginalis); assay: Flooded paddy, preemergence weed control; assay type: in vivo, Presl.; settings: rated 3-4 weeks after treatment, 0-9 rating scale
In short: as §3

[11] = test system: ECHORC (Echinochloa oryzoides); assay: Flooded paddy, postemergence weed control; assay type: in vivo, Echinochloa oryzoides (Ard.) Fritsch.; settings: postemergence weeds, rated 3-4 weeks after treatment
In short: (§4)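 Visual 0-9 score (stand, vigor, malformation, size, chlorosis, overall appearance vs untreated control) taken 3-4 wk post-treatment. Weeds 3-5 cm, rice 1.5-2.5 leaf stage, flood 1.5-3 cm; compound into flood water, ~0.0320-0.2500 kg/ha, aqueous/acetone 50/50 v/v.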

CYPIR (Cyperus iria) [12] = assay: Flooded paddy, postemergence weed control; assay type: in vivo; settings: postemergence weeds, rated 3-4 weeks after treatment
In short: as §4

[13] = test system: CYPSE (Cyperus serotinus); assay: Flooded paddy, postemergence weed control; assay type: in vivo, Rottb.; settings: postemergence weeds, rated 3-4 weeks after treatment
In short: as §4

[14] = test system: MOOVA (Monochoria vaginalis); assay: Flooded paddy, postemergence weed control; assay type: in vivo, Presl.; settings: postemergence weeds, rated 3-4 weeks after treatment
In short: as §4

[15] = test system: SAGPY (Sagittaria pygmaea); assay: Flooded paddy, postemergence weed control; assay type: in vivo, L.; settings: postemergence weeds, rated 3-4 weeks after treatment
In short: as §4

ORYSAT (Rice, Tebonnet) = assay: Flooded paddy, post-transplant and postemergence rice tolerance; assay type: in vivo, Oryza sativa, (L.) Tebonnet; settings: post-transplant rice, rated 3-4 weeks after treatment
In short: as §4

Cc1cscc1-c1nsc2ccc(-n3c(=O)cc(C(F)(F)F)n(C)c3=O)cc12 [Compound 26, 1-methyl-3-[3-(4-methyl-3-thienyl)-1,2-benzisothiazol-5-yl]-6-(trifluoromethyl)uracil]
8.3: herbicidal rating, CYPIR (CYPIR (Cyperus iria) [9]; rate 0.0320 kg/ha)
3.5: ZEAMX preemergence herbicidal rating (ZEAMX (Corn, Field); Rate 0.1250 kg/ha)
6.5: Postemergence herbicidal rating, GLXMAW ([3]; rate 0.0620 kg/ha) | ECHCG preemergence herbicidal rating ([6]; Rate 0.0620 kg/ha) | ZEAMX preemergence herbicidal rating (ZEAMX (Corn, Field); Rate 0.2500 kg/ha)
8.5: herbicidal rating, CYPIR (CYPIR (Cyperus iria) [9]; rate 0.0080 kg/ha)
5.0: Postemergence herbicidal rating, GALAP (GALAP (Galium aparine) [1]; rate 0.0320 kg/ha) | herbicide rating (0-9) ORYSAT (rice tolerance) (ORYSAT (Rice, Tebonnet); 0.0620 kg/ha into flood water)
7.0: Postemergence herbicidal rating, SETVI (SETVI (Setaria viridis) [2]; rate 0.0320 kg/ha) | GALAP preemergence herbicidal rating (GALAP (Galium aparine) [4]; Rate 0.0620 kg/ha) | GALAP preemergence herbicidal rating (GALAP (Galium aparine) [4]; Rate 0.1250 kg/ha) | herbicide rating (0-9) ECHORC ([11]; 0.0320 kg/ha into flood water) | herbicide rating (0-9) CYPSE ([13]; 0.0320 kg/ha into flood water) | herbicide rating (0-9) CYPSE ([13]; 0.0620 kg/ha into flood water) | herbicide rating (0-9) CYPSE ([13]; 0.1250 kg/ha into flood water)
1.5: IPOHE preemergence herbicidal rating ([5]; Rate 0.0620 kg/ha)
1.0: GLXMAW preemergence herbicidal rating ([8]; Rate 0.0620 kg/ha)
4.0: IPOHE preemergence herbicidal rating ([5]; Rate 0.1250 kg/ha) | herbicide rating (0-9) MOOVA ([14]; 0.0320 kg/ha into flood water) | herbicide rating (0-9) MOOVA ([14]; 0.0620 kg/ha into flood water) | herbicide rating (0-9) ORYSAT (rice tolerance) (ORYSAT (Rice, Tebonnet); 0.0320 kg/ha into flood water)
2.5: ZEAMX preemergence herbicidal rating (ZEAMX (Corn, Field); Rate 0.0620 kg/ha)
6.0: Postemergence herbicidal rating, GALAP (GALAP (Galium aparine) [1]; rate 0.0620 kg/ha) | Postemergence herbicidal rating, GLXMAW ([3]; rate 0.0320 kg/ha) | IPOHE preemergence herbicidal rating ([5]; Rate 0.2500 kg/ha) | herbicide rating (0-9) MOOVA ([14]; 0.1250 kg/ha into flood water) | herbicide rating (0-9) ORYSAT (rice tolerance) (ORYSAT (Rice, Tebonnet); 0.1250 kg/ha into flood water)
4.5: GLXMAW preemergence herbicidal rating ([8]; Rate 0.2500 kg/ha)
3.0: GLXMAW preemergence herbicidal rating ([8]; Rate 0.1250 kg/ha)
9.0: Postemergence herbicidal rating, SETVI (SETVI (Setaria viridis) [2]; rate 0.0620 kg/ha) | GALAP preemergence herbicidal rating (GALAP (Galium aparine) [4]; Rate 0.2500 kg/ha) | ECHCG preemergence herbicidal rating ([6]; Rate 0.1250 kg/ha) | ECHCG preemergence herbicidal rating ([6]; Rate 0.2500 kg/ha) | SETVI preemergence herbicidal rating (SETVI (Setaria viridis) [7]; Rate 0.0620 kg/ha) | SETVI preemergence herbicidal rating (SETVI (Setaria viridis) [7]; Rate 0.1250 kg/ha) | SETVI preemergence herbicidal rating (SETVI (Setaria viridis) [7]; Rate 0.2500 kg/ha) | herbicidal rating, CYPIR (CYPIR (Cyperus iria) [9]; rate 0.1250 kg/ha) | herbicidal rating, MOOVA ([10]; rate 0.0080 kg/ha) | herbicidal rating, MOOVA ([10]; rate 0.0320 kg/ha) | herbicidal rating, MOOVA ([10]; rate 0.1250 kg/ha) | herbicide rating (0-9) ECHORC ([11]; 0.0620 kg/ha into flood water) | herbicide rating (0-9) ECHORC ([11]; 0.1250 kg/ha into flood water) | herbicide rating (0-9) CYPIR (CYPIR (Cyperus iria) [12]; 0.0320 kg/ha into flood water) | herbicide rating (0-9) CYPIR (CYPIR (Cyperus iria) [12]; 0.0620 kg/ha into flood water) | herbicide rating (0-9) CYPIR (CYPIR (Cyperus iria) [12]; 0.1250 kg/ha into flood water)
0.0: herbicide rating (0-9) SAGPY ([15]; 0.0320 kg/ha into flood water) | herbicide rating (0-9) SAGPY ([15]; 0.0620 kg/ha into flood water) | herbicide rating (0-9) SAGPY ([15]; 0.1250 kg/ha into flood water)

Cc1cc(C)c(-c2nsc3ccc(-n4c(=O)cc(C(F)(F)F)n(C)c4=O)cc23)s1 [Compound 27, 3-[3-(3,5-dimethyl-2-thienyl)-1,2-benzisothiazol-5-yl]-1-methyl-6-(trifluoromethyl)uracil]
2.0: Postemergence herbicidal rating, GALAP (GALAP (Galium aparine) [1]; rate 0.0320 kg/ha) | GLXMAW preemergence herbicidal rating ([8]; Rate 0.1250 kg/ha) | herbicide rating (0-9) ORYSAT (rice tolerance) (ORYSAT (Rice, Tebonnet); 0.0320 kg/ha into flood water)
6.5: Postemergence herbicidal rating, GLXMAW ([3]; rate 0.0320 kg/ha)
4.5: herbicidal rating, CYPIR (CYPIR (Cyperus iria) [9]; rate 0.0080 kg/ha)
0.0: herbicide rating (0-9) ECHORC ([11]; 0.0320 kg/ha into flood water) | herbicide rating (0-9) CYPSE ([13]; 0.0320 kg/ha into flood water) | herbicide rating (0-9) CYPSE ([13]; 0.0620 kg/ha into flood water) | herbicide rating (0-9) SAGPY ([15]; 0.0320 kg/ha into flood water) | herbicide rating (0-9) SAGPY ([15]; 0.0620 kg/ha into flood water) | herbicide rating (0-9) SAGPY ([15]; 0.1250 kg/ha into flood water)
4.0: Postemergence herbicidal rating, GALAP (GALAP (Galium aparine) [1]; rate 0.0620 kg/ha) | IPOHE preemergence herbicidal rating ([5]; Rate 0.1250 kg/ha) | herbicide rating (0-9) CYPSE ([13]; 0.1250 kg/ha into flood water) | herbicide rating (0-9) ORYSAT (rice tolerance) (ORYSAT (Rice, Tebonnet); 0.0620 kg/ha into flood water)
7.0: Postemergence herbicidal rating, SETVI (SETVI (Setaria viridis) [2]; rate 0.0320 kg/ha) | GALAP preemergence herbicidal rating (GALAP (Galium aparine) [4]; Rate 0.1250 kg/ha) | ECHCG preemergence herbicidal rating ([6]; Rate 0.1250 kg/ha) | ECHCG preemergence herbicidal rating ([6]; Rate 0.2500 kg/ha) | herbicide rating (0-9) ECHORC ([11]; 0.0620 kg/ha into flood water)
1.0: GLXMAW preemergence herbicidal rating ([8]; Rate 0.0620 kg/ha) | GLXMAW preemergence herbicidal rating ([8]; Rate 0.2500 kg/ha)
3.0: IPOHE preemergence herbicidal rating ([5]; Rate 0.2500 kg/ha) | ZEAMX preemergence herbicidal rating (ZEAMX (Corn, Field); Rate 0.0620 kg/ha) | ZEAMX preemergence herbicidal rating (ZEAMX (Corn, Field); Rate 0.1250 kg/ha) | ZEAMX preemergence herbicidal rating (ZEAMX (Corn, Field); Rate 0.2500 kg/ha)
9.0: Postemergence herbicidal rating, SETVI (SETVI (Setaria viridis) [2]; rate 0.0620 kg/ha) | GALAP preemergence herbicidal rating (GALAP (Galium aparine) [4]; Rate 0.0620 kg/ha) | SETVI preemergence herbicidal rating (SETVI (Setaria viridis) [7]; Rate 0.0620 kg/ha) | SETVI preemergence herbicidal rating (SETVI (Setaria viridis) [7]; Rate 0.1250 kg/ha) | SETVI preemergence herbicidal rating (SETVI (Setaria viridis) [7]; Rate 0.2500 kg/ha) | herbicidal rating, CYPIR (CYPIR (Cyperus iria) [9]; rate 0.0320 kg/ha) | herbicidal rating, CYPIR (CYPIR (Cyperus iria) [9]; rate 0.1250 kg/ha) | herbicidal rating, MOOVA ([10]; rate 0.0320 kg/ha) | herbicidal rating, MOOVA ([10]; rate 0.1250 kg/ha) | herbicide rating (0-9) ECHORC ([11]; 0.1250 kg/ha into flood water) | herbicide rating (0-9) CYPIR (CYPIR (Cyperus iria) [12]; 0.0320 kg/ha into flood water) | herbicide rating (0-9) CYPIR (CYPIR (Cyperus iria) [12]; 0.0620 kg/ha into flood water) | herbicide rating (0-9) CYPIR (CYPIR (Cyperus iria) [12]; 0.1250 kg/ha into flood water) | herbicide rating (0-9) MOOVA ([14]; 0.0620 kg/ha into flood water) | herbicide rating (0-9) MOOVA ([14]; 0.1250 kg/ha into flood water)
8.0: GALAP preemergence herbicidal rating (GALAP (Galium aparine) [4]; Rate 0.2500 kg/ha)
6.0: Postemergence herbicidal rating, GLXMAW ([3]; rate 0.0620 kg/ha) | ECHCG preemergence herbicidal rating ([6]; Rate 0.0620 kg/ha) | herbicidal rating, MOOVA ([10]; rate 0.0080 kg/ha) | herbicide rating (0-9) MOOVA ([14]; 0.0320 kg/ha into flood water) | herbicide rating (0-9) ORYSAT (rice tolerance) (ORYSAT (Rice, Tebonnet); 0.1250 kg/ha into flood water)
